GI50 and TGI data for twelve compounds are collected here from PubChem BioAssay (NCI).

Test systems include BT-549 breast; SF-295 CNS; NCI-H226 lung; CCRF-CEM leukemia; NCI/ADR-RES ovarian; HCT-116 colon; OVCAR-4 ovarian; HCT-15 colon; UACC-62 melanoma; COLO 205 colon.
Common to all, as to assay: growth of human tumour cells (NCI), 48 h

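Exposure lasted 48 hours, with cells grown in 96-well plates and compounds tested at five concentrations. GI50 marks 50% less growth. At the TGI there is no net growth.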 Bounds are passed on as bounds.

Consider `CC(=O)c1ccc(Nc2cc(-c3ccccc3)nc3c(O)cccc23)cc1`, for which the GI50 in the experiment with BT-549 breast is 28.7 µM; with SF-295 CNS it was 37.2 µM; in the experiment with NCI-H226 lung, 28.2 µM; with CCRF-CEM leukemia, 5.05 µM; in the experiment on NCI/ADR-RES ovarian, 5.53 µM; in the experiment with HCT-116 colon it was 5.79 µM. Further, the GI50 is 18.2 µM in the experiment on OVCAR-4 ovarian, 8.31 µM in the experiment on HCT-15 colon, 12.7 µM with UACC-62 melanoma and 32.1 µM with COLO 205 colon. In addition, the TGI in the experiment with BT-549 breast is over 100 µM; with SF-295 CNS, over 100 µM; with NCI-H226 lung, over 100 µM; in the experiment with CCRF-CEM leukemia, 34.6 µM; in the experiment on NCI/ADR-RES ovarian, 34.9 µM; with HCT-116 colon, 90.2 µM. Moreover, the TGI was 64.7 µM with OVCAR-4 ovarian, over 100 µM with HCT-15 colon, 29.6 µM with UACC-62 melanoma and over 100 µM in the experiment on COLO 205 colon.
As to `O=C(Nc1nc2ccccc2s1)OCC(F)(F)F`, the GI50 with BT-549 breast, with SF-295 CNS, in the experiment with NCI-H226 lung, with CCRF-CEM leukemia, with NCI/ADR-RES ovarian and with HCT-116 colon was over 100 µM each time. For the same compound, the GI50 with OVCAR-4 ovarian, in the experiment with HCT-15 colon, with UACC-62 melanoma and with COLO 205 colon was over 100 µM each time. The TGI in the experiment with BT-549 breast, in the experiment with SF-295 CNS, in the experiment on NCI-H226 lung, in the experiment with CCRF-CEM leukemia, with NCI/ADR-RES ovarian and in the experiment on HCT-116 colon was over 100 µM throughout. In addition, the TGI with OVCAR-4 ovarian, in the experiment with HCT-15 colon, with UACC-62 melanoma and in the experiment with COLO 205 colon was over 100 µM in each case.
Turning to `CC(C)(C)OC(=O)NC(Cc1ccccc1)C(=O)OCN1C(=O)C2C3C=CC(C2C1=O)C1C2C(=O)N(COC(=O)C(Cc4ccccc4)NC(=O)OC(C)(C)C)C(=O)C2C31` (centres undefined), the TGI with BT-549 breast was 92.6 µM; in the experiment on SF-295 CNS it was over 100 µM; in the experiment on NCI-H226 lung, over 96.4 µM; in the experiment on CCRF-CEM leukemia it was over 68.5 µM; in the experiment with NCI/ADR-RES ovarian it was over 100 µM; with HCT-116 colon it was over 88.5 µM. Besides, the TGI with OVCAR-4 ovarian is over 100 µM; in the experiment on HCT-15 colon it was over 100 µM; in the experiment on UACC-62 melanoma, over 100 µM; in the experiment on COLO 205 colon, 28.7 µM.
For `COc1cc2ncn(-c3cc(OCc4ccccc4Cl)c(C(N)=O)s3)c2cc1OC`, the GI50 with BT-549 breast is 1.41 µM; in the experiment with SF-295 CNS, 0.186 µM; with NCI-H226 lung, 0.801 µM; in the experiment with CCRF-CEM leukemia, 0.0781 µM; with NCI/ADR-RES ovarian it was 0.22 µM; in the experiment on HCT-116 colon it was 0.233 µM. Besides, the GI50 in the experiment on OVCAR-4 ovarian was 2.09 µM; with HCT-15 colon, 0.269 µM; with UACC-62 melanoma it was 0.283 µM; in the experiment with COLO 205 colon, 0.111 µM. Further, the TGI is over 17 µM in the experiment on BT-549 breast; over 11.2 µM in the experiment on SF-295 CNS; over 25 µM in the experiment with NCI-H226 lung; over 10.6 µM in the experiment on CCRF-CEM leukemia; over 10.3 µM with NCI/ADR-RES ovarian; over 22.1 µM with HCT-116 colon. The TGI with OVCAR-4 ovarian, with HCT-15 colon, in the experiment with UACC-62 melanoma and with COLO 205 colon was over 25 µM each time.
With `COc1ccc(-c2nn(-c3cccc(Cl)c3)cc2C2CC(c3ccccc3)=NN2C(C)=O)cc1` (centres undefined), the GI50 in the experiment on BT-549 breast is 3.23 µM; in the experiment on SF-295 CNS, 5.96 µM; in the experiment with NCI-H226 lung it was 3.86 µM; in the experiment with CCRF-CEM leukemia, over 100 µM; in the experiment with NCI/ADR-RES ovarian, 6.96 µM; in the experiment on HCT-116 colon, 4.2 µM. The GI50 with OVCAR-4 ovarian is 3.38 µM; in the experiment with HCT-15 colon it was over 100 µM; with UACC-62 melanoma, 15.3 µM; with COLO 205 colon, over 100 µM. The TGI in the experiment with BT-549 breast was 19.7 µM; in the experiment on SF-295 CNS, 40.6 µM; in the experiment with NCI-H226 lung it was 30.9 µM; in the experiment on CCRF-CEM leukemia it was over 100 µM; with NCI/ADR-RES ovarian it was over 100 µM; in the experiment on HCT-116 colon, over 100 µM. The TGI with OVCAR-4 ovarian was 29.2 µM; in the experiment with HCT-15 colon, over 100 µM; in the experiment with UACC-62 melanoma it was over 100 µM; in the experiment with COLO 205 colon, over 100 µM.
Turning to `Cc1ccc2c(C(C[N+](=O)[O-])c3cccs3)c(-c3ccccc3)[nH]c2c1` (centres undefined), the GI50 in the experiment with BT-549 breast was 1.92 µM; in the experiment on SF-295 CNS, 1.15 µM; with NCI-H226 lung, 3.38 µM; in the experiment with CCRF-CEM leukemia, 1.38 µM; in the experiment on NCI/ADR-RES ovarian, 0.984 µM; in the experiment on HCT-116 colon, 1.31 µM. The GI50 in the experiment with OVCAR-4 ovarian is 4.45 µM; in the experiment with HCT-15 colon, 1.44 µM; with UACC-62 melanoma it was 1.4 µM; in the experiment on COLO 205 colon it was 2.46 µM. The TGI was 7.29 µM with BT-549 breast; 4.54 µM in the experiment on SF-295 CNS; 8.61 µM in the experiment with NCI-H226 lung; over 33.3 µM in the experiment with CCRF-CEM leukemia; 3.68 µM in the experiment with NCI/ADR-RES ovarian; 4.56 µM with HCT-116 colon. Moreover, the TGI turned out to be 13.9 µM in the experiment on OVCAR-4 ovarian, 7.46 µM with HCT-15 colon, 5.58 µM in the experiment with UACC-62 melanoma and 12.6 µM in the experiment on COLO 205 colon.
Consider `C#Cc1cnc(=O)n(C2CC(O)C(CO)O2)c1` (centres undefined), for which the GI50 in the experiment on BT-549 breast was over 100 µM; with SF-295 CNS, over 100 µM; in the experiment with NCI-H226 lung, over 100 µM; with CCRF-CEM leukemia, 13.5 µM; in the experiment with NCI/ADR-RES ovarian it was over 100 µM; in the experiment with HCT-116 colon it was over 100 µM. The GI50 in the experiment on OVCAR-4 ovarian, in the experiment with HCT-15 colon, with UACC-62 melanoma and in the experiment on COLO 205 colon was over 100 µM in each case. Also, the TGI with BT-549 breast was over 100 µM; with SF-295 CNS, over 100 µM; in the experiment on NCI-H226 lung, over 100 µM; with CCRF-CEM leukemia, over 32.8 µM; in the experiment on NCI/ADR-RES ovarian, over 100 µM; in the experiment on HCT-116 colon, over 100 µM. Besides, the TGI in the experiment on OVCAR-4 ovarian, in the experiment with HCT-15 colon, in the experiment with UACC-62 melanoma and in the experiment on COLO 205 colon was over 100 µM each time.
`COc1cc(/C=C\[N+](=O)[O-])ccc1O`: the GI50 was 2.39 µM in the experiment on BT-549 breast; 17.2 µM in the experiment with SF-295 CNS; 4.34 µM in the experiment with NCI-H226 lung; 2.25 µM with CCRF-CEM leukemia; 2.84 µM with NCI/ADR-RES ovarian; 1.83 µM in the experiment with HCT-116 colon. Also, the GI50 in the experiment on OVCAR-4 ovarian was 3.86 µM; with HCT-15 colon, 1.85 µM; with UACC-62 melanoma, 1.78 µM; in the experiment on COLO 205 colon it was 2.36 µM. The TGI in the experiment on BT-549 breast is 6.51 µM; with SF-295 CNS, 31.5 µM; in the experiment with NCI-H226 lung it was 16.6 µM; in the experiment on CCRF-CEM leukemia, 7.23 µM; with NCI/ADR-RES ovarian it was 7.95 µM; in the experiment on HCT-116 colon it was 3.43 µM. Besides, the TGI is 14.1 µM in the experiment with OVCAR-4 ovarian, 6.03 µM in the experiment with HCT-15 colon, 3.99 µM in the experiment with UACC-62 melanoma and 5.74 µM in the experiment on COLO 205 colon.
As for `CC(C)(C)c1cc(O)c(O)c(C(C)(C)C)c1`, the GI50 in the experiment on BT-549 breast is 8.71 µM; in the experiment on SF-295 CNS, 3.53 µM; with NCI-H226 lung, 6.35 µM; in the experiment on CCRF-CEM leukemia, 2.33 µM; in the experiment on NCI/ADR-RES ovarian, 3.54 µM; in the experiment on HCT-116 colon, 1.83 µM. Further, the GI50 in the experiment on OVCAR-4 ovarian was 2.31 µM; in the experiment on HCT-15 colon it was 3.38 µM; in the experiment on UACC-62 melanoma it was 2.54 µM; with COLO 205 colon, 3.61 µM. Moreover, the TGI worked out at 21 µM in the experiment on BT-549 breast; 14.4 µM with SF-295 CNS; 22.8 µM in the experiment on NCI-H226 lung; 7.49 µM with CCRF-CEM leukemia; 17.9 µM with NCI/ADR-RES ovarian; 3.41 µM in the experiment on HCT-116 colon. The TGI was 5.84 µM in the experiment with OVCAR-4 ovarian, 11.2 µM in the experiment with HCT-15 colon, 7.78 µM in the experiment on UACC-62 melanoma and 12.2 µM in the experiment on COLO 205 colon.
`CC(CO)(CO)N=Cc1cc(I)cc(I)c1O`: the TGI in the experiment with BT-549 breast is 36.4 µM; with SF-295 CNS, 47.3 µM; with NCI-H226 lung, 34.7 µM; in the experiment on CCRF-CEM leukemia, 44.5 µM; in the experiment with NCI/ADR-RES ovarian, 63.2 µM; in the experiment with HCT-116 colon, 31.3 µM. Moreover, the TGI in the experiment with OVCAR-4 ovarian turned out to be 37.2 µM; in the experiment with HCT-15 colon, 34.8 µM; with UACC-62 melanoma it was 30.7 µM; in the experiment with COLO 205 colon, 35.3 µM.
As to `COc1cc(-n2cc(-c3ccc(Cl)c(Cl)c3)nc2SCc2ccccc2)cc(OC)c1OC`, the GI50 was over 100 µM in the experiment with BT-549 breast; over 100 µM in the experiment on SF-295 CNS; over 100 µM with NCI-H226 lung; over 100 µM in the experiment on CCRF-CEM leukemia; over 100 µM with NCI/ADR-RES ovarian; 80.7 µM in the experiment with HCT-116 colon. The GI50 in the experiment with OVCAR-4 ovarian, in the experiment on HCT-15 colon, in the experiment on UACC-62 melanoma and in the experiment on COLO 205 colon was over 100 µM throughout. Also, the TGI in the experiment with BT-549 breast, in the experiment on SF-295 CNS, in the experiment on NCI-H226 lung, in the experiment on CCRF-CEM leukemia, in the experiment with NCI/ADR-RES ovarian and in the experiment with HCT-116 colon was over 100 µM in each case. The TGI in the experiment with OVCAR-4 ovarian, in the experiment on HCT-15 colon, with UACC-62 melanoma and in the experiment on COLO 205 colon was over 100 µM in each case.
Turning to `COc1ccc(C(=O)Nc2ncc(Cc3ccc(Cl)cc3)s2)cc1`, the GI50 in the experiment with BT-549 breast was 1 µM; with SF-295 CNS, 0.0561 µM; in the experiment on NCI-H226 lung it was 0.0771 µM; in the experiment with CCRF-CEM leukemia it was 0.046 µM; in the experiment with NCI/ADR-RES ovarian it was 0.0457 µM; in the experiment with HCT-116 colon, 0.0509 µM. Further, the GI50 with OVCAR-4 ovarian was 2.7 µM; in the experiment with HCT-15 colon it was 0.044 µM; in the experiment on UACC-62 melanoma, 0.0475 µM; in the experiment with COLO 205 colon, 0.0533 µM. Also, the TGI in the experiment with BT-549 breast was over 100 µM; in the experiment on SF-295 CNS it was 1.97 µM; in the experiment with NCI-H226 lung, over 64.3 µM; with CCRF-CEM leukemia it was over 100 µM; in the experiment on HCT-116 colon it was over 100 µM; with OVCAR-4 ovarian, over 100 µM. In addition, the TGI is over 100 µM with HCT-15 colon, over 100 µM with UACC-62 melanoma and 2.29 µM in the experiment on COLO 205 colon.
